Experimental findings from patent US9856250B2, “Substituted tropane derivatives” (TOA EIYO LTD., priority 2014, dated 2018) are described below.

In one test the target is human T-type calcium channels (human Cav3.2) (Homo sapiens (Human), UniProt O95180). Put plainly: Antagonistic activity against T-type calcium channels (Cav3.2), Fura2 intracellular calcium assay in HEK293 cells.
Chain of human T-type calcium channels (human Cav3.2) (O95180 whole entry): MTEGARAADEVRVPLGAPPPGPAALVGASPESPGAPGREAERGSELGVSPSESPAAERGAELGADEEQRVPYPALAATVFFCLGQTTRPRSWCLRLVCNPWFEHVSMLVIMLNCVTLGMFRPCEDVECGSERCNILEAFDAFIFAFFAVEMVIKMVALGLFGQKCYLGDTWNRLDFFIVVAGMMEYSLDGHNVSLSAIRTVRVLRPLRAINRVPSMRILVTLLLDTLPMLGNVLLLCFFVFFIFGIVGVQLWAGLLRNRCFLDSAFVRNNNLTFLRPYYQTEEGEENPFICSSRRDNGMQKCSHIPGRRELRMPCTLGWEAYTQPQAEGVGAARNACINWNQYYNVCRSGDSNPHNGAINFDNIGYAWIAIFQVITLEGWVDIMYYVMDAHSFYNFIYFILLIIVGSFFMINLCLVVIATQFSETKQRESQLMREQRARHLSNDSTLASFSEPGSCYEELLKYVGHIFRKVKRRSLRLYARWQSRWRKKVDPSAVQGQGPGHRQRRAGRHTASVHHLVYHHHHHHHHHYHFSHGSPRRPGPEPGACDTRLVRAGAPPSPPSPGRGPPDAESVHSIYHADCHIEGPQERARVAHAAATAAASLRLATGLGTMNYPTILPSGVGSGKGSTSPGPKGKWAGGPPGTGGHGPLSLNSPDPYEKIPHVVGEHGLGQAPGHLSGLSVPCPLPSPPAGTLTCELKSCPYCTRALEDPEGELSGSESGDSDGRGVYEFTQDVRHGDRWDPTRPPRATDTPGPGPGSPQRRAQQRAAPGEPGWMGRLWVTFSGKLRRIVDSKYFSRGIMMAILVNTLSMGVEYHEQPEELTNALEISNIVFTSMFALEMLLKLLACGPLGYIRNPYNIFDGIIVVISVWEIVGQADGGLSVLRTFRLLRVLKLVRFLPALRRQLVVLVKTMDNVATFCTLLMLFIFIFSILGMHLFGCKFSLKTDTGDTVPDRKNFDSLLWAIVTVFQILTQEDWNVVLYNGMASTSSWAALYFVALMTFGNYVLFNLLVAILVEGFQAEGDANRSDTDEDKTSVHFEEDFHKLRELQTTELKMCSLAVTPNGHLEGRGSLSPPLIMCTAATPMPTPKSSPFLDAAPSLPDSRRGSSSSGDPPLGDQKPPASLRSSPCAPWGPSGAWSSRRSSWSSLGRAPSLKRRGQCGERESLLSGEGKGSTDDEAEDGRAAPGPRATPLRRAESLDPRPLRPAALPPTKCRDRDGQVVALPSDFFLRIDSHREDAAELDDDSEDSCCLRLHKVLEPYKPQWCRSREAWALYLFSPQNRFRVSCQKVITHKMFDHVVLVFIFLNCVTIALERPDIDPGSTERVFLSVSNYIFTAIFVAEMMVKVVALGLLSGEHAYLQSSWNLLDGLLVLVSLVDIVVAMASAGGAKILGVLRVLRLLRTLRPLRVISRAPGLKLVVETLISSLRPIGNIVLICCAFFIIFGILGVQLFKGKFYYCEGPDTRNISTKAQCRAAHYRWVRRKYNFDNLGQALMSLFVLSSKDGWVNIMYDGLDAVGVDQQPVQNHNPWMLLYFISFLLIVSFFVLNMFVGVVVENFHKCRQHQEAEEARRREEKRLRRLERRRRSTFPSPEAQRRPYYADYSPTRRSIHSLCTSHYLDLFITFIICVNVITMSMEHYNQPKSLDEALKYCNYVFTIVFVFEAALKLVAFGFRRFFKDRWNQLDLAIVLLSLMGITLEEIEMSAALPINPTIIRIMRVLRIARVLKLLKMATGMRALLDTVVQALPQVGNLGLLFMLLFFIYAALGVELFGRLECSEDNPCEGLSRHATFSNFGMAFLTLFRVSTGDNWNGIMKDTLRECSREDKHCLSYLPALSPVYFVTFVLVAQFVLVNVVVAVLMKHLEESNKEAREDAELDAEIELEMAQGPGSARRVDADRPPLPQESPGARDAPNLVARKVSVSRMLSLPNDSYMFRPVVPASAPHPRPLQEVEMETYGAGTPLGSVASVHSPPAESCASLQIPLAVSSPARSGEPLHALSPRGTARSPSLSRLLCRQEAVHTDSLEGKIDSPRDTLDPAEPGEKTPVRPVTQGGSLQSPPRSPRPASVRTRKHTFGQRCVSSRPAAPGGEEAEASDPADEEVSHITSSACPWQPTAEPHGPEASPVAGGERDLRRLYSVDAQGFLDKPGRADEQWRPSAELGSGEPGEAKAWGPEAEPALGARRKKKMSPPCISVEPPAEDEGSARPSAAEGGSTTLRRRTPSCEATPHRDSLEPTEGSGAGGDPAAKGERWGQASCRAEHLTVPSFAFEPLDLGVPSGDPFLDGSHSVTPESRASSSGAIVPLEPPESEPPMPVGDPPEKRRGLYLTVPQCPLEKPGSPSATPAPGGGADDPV
Conditions: not given
It is filed as cell-based. On the procedure: For representative compounds of the present invention, the antagonistic activity against T-type calcium channels (Cav3.2) was examined by the Test Examples described below. For the respective tests, human embryo kidney cells (HEK293 cells) in which human T-type calcium channels (human Cav3.2) were stably expressed were used.
The HEK293 cells having human Cav3.2 stably expressed therein were cultured at 37° C. in Alpha-MEM, to which 10% (v/v) fetal bovine serum (FBS), penicillin (100 U/mL), streptomycin (100 μg/mL), and G418 ([…]) had been added. The cells were suspended in the culture liquid and were inoculated onto a 96-well plate. Subsequently, the cells were cultured for 48 hours. The culture liquid was removed, and the liquid was changed to S-MEM, to which 5% (v/v) FBS, calcium chloride (0.5 mmol/L), L-glutamine (2 mmol/L), L-alanine (8.9 ng/mL), L-asparagine (13.2 ng/mL), L-aspartic acid (1.33 ng/mL), L-glutamic acid (14.7 ng/mL), glycine (7.5 ng/mL), L-proline (11.5 ng/mL, L-serine (10.5 ng/mL), penicillin (100 U/mL), and streptomycin (100 μg/mL) had been added. The cells were cultured for another 24 hours. The culture liquid was removed again, and the cells were washed with an assay buffer (140 mmol/L sodium chloride, 5 mmol/L potassium chloride, 0.5 mmol/L magnesium chloride, 0.5 mmol/L calcium chloride, 10 mmol/L glucose, 0.4 mmol/L magnesium sulfate, 10 mmol/L HEPES, and […] sulfinpyrazone, pH 7.4) that had been kept warm at 37° C. Subsequently, an assay buffer prepared by dissolving Fura2-AM, which is a fluorescent Ca^2+ indicator, to a concentration of 5 μM, was added to the cells, and the system was incubated for 30 minutes at 37° C. The assay buffer having Fura2 dissolved therein was removed, and the cells were washed with the assay buffer. Subsequently, an assay buffer prepared by adding a test compound was added to the cells, and the system was incubated for 15 minutes. The plate was mounted on a fluorescence analyzer (FLEX STATION II, Molecular Devices, LLC), and the baseline was measured for 20 seconds. Subsequently, any change in the intracellular calcium concentration that was induced when an assay buffer prepared by adding 100 mmol/L calcium chloride was added to the cells, was measured (excited at 340 nm or 380 nm, and detected at 510 nm). The fluorescence intensity ratios obtainable at the respective wavelengths were calculated.
Meanwhile, the test compound solution was prepared by dissolving each test compound in DMSO to a concentration of 10 mmol/L, and then adjusting the concentration with the assay buffer so as to obtain the set concentration. For the control solution, DMSO was used instead of a test compound.
The inhibitory activity level (%) of a test compound was calculated by subtracting the average value of the fluorescence intensity ratio for a period of 0 to 20 seconds after initiation of measurement, from the average value of the fluorescence intensity ratio for a period of 45 to 50 seconds after initiation of measurement, taking the value obtained using the control solution as the maximum activity of Cav3.2, and comparing this value with the activity in the presence of the test compound.
Calculation of IC50 Value:
The inhibitory activity of each test compound was measured at concentrations of […], and the IC50 value was calculated using the curve fitting formula (Model 08: sigmoidal inhibition curve) of ASSAY EXPLORER (Symyx Technologies, Inc.).
Average of RFU value obtained for 25 to 30 seconds after the addition of a […] assay buffer after treatment with the control solution (for 45 to 50 seconds after the initiation of measurement). The RFU in the formula represents the Relative Fluorescence Unit.
In general terms: Calcium flux is commonly read through the fluorescence of an indicator in the cells.
Turning to `Cn1cc(C(=O)NC[C@@H]2C[C@H]3CC[C@@H](C2)N3CC(=O)NC(C)(C)C)c2ccccc21` [Example 24], the IC50 was determined as 78 nM.
Same read-out and setting: with `Cc1oc2ccccc2c1C(=O)NC[C@@H]1C[C@H]2CC[C@@H](C1)N2CC(=O)NC(C)(C)C` [Example 85] the figure was 15 nM.
On the same count and under the same terms, under `Cc1oc2c(c1C(=O)NC[C@@H]1C[C@H]3CC[C@@H](C1)N3CC(=O)NC(C)(C)C)CCCC2` [Example 19] stands 48 nM; under `CC(C)(C)NC(=O)CN1[C@@H]2CC[C@H]1C[C@H](CNC(=O)c1cccc(F)c1)C2` [Example 113], 39 nM; under `Cn1cc(C(=O)NC[C@@H]2C[C@H]3CC[C@@H](C2)N3CC(=O)NC2(C(F)(F)F)CC2)c2ccccc21` [Example 45], 103 nM.
The same measure, in the same setting: with `COc1ccc2oc(C)c(C(=O)NC[C@@H]3C[C@H]4CC[C@@H](C3)N4CC(=O)NC(C)(C)C)c2c1` [Example 86] the figure was 91 nM; with `CC(C)(C)NC(=O)CN1[C@@H]2CC[C@H]1C[C@H](CNC(=O)C13CC4CC(CC1C4)C3)C2` [Example 107], 49 nM; with `Cc1oc2c(c1C(=O)NC[C@@H]1C[C@H]3CC[C@@H](C1)N3CC(=O)NC1(C(F)(F)F)CC1)CCCC2` [Example 95], 88 nM.
On to `CC(C)(C)NC(=O)CN1[C@@H]2CC[C@H]1C[C@H](CNC(=O)C(C)(C)Oc1cccc(Cl)c1)C2` [Example 31], for which the IC50 was found to be 73 nM.
Same read-out and setting: with `CC(C)(C)NC(=O)CN1[C@@H]2CC[C@H]1C[C@H](CNC(=O)C1CCCCC1)C2` [Example 74] the figure was 101 nM; with `CC(C)(C)NC(=O)CN1[C@@H]2CC[C@H]1C[C@H](CNC(=O)c1cc(F)cc(C#N)c1)C2` [Example 79], 45 nM.
As to `O=C(CN1[C@@H]2CC[C@H]1C[C@H](CNC(=O)C13CC4CC(CC1C4)C3)C2)NC1(CO)CCCC1` [Example 109], the concentration for half-maximal inhibition (IC50) amounted to 94 nM.
On the same count and under the same terms, with `Cc1c(C(=O)NC[C@@H]2C[C@H]3CC[C@@H](C2)N3CC(=O)NC(C)(C)C)c2ccccc2n1C` [Example 37] the figure was 67 nM.

Still in this test, the particulars now being: HEK293 cells stably expressing human Cav3.2; Fura2 fluorescence ratio after calcium chloride addition; read-out: IC50.
Turning to `CC(C)(C)NC(=O)CN1[C@@H]2CC[C@H]1C[C@H](CC(=O)Nc1cccc(Cl)c1)C2` [Example 1, 2-[(exo)-8-(tert-Butylcarbamoyl)methyl-8-azabicyclo[3.2.1]octan-3-yl]-N-(3-chlorophenyl)acetamide], the 50% inhibitory concentration (IC50) is 68 nM.
Turning to `CN(C(=O)CN1[C@@H]2CC[C@H]1C[C@H](CNC(=O)c1cc(F)cc(Cl)c1)C2)C(C)(C)C` [Example 118], the IC50 is 78 nM.
For the compound `COc1cc(C)cc(C(=O)NC[C@@H]2C[C@H]3CC[C@@H](C2)N3CC(=O)NC2(C(F)(F)F)CC2)c1` [Example 96], the IC50 was 58 nM.
On the same count and under the same terms, with `CC1(NC(=O)CN2[C@@H]3CC[C@H]2C[C@H](CNC(=O)c2cc(F)cc(Cl)c2)C3)COC1` [Example 112] the figure was 93 nM.
Still for that read-out and setting: with `Cn1nc(C(C)(C)C)cc1C(=O)NC[C@@H]1C[C@H]2CC[C@@H](C1)N2CC(=O)NC(C)(C)C` [Example 69] the figure was 51 nM; with `O=C(CN1[C@@H]2CC[C@H]1C[C@H](CNC(=O)c1cc(F)cc(Cl)c1)C2)NC1(C(F)(F)F)CC1` [Example 114], 70 nM; with `Cc1cc(C(=O)NC[C@@H]2C[C@H]3CC[C@@H](C2)N3CC(=O)NC(C)(C)C)n(C)n1` [Example 23], 203 nM.
Same read-out and setting: under `Cc1cccc2[nH]c(C[C@H]3C[C@H]4CC[C@@H](C3)N4CC(=O)NC(C)(C)C)nc12` [Example 147] stands 83 nM; under `CC(C)(C)NC(=O)CN1[C@@H]2CC[C@H]1C[C@H](CNC(=O)c1coc3ccccc13)C2` [Example 11, N-[(exo)-8-(tert-Butylcarbamoyl)methyl-8-azabicyclo[3.2.1]octan-3-yl]methylbenzofuran-3-carboxamide], 3 nM.
Turning to `CC(C)(C)NC(=O)CN1[C@@H]2CC[C@H]1C[C@H](CNC(=O)C(C)(C)Oc1ccc(C3CC3(Cl)Cl)cc1)C2` (stereo partly drawn) [Example 27], the IC50 amounted to 94 nM.
On the same count and under the same terms, with `Cc1cc(F)cc(C(=O)NC[C@@H]2C[C@H]3CC[C@@H](C2)N3CC(=O)NC(C)(C)C)c1` [Example 55] the figure was 36 nM; with `COCC(C)(C)NC(=O)CN1[C@@H]2CC[C@H]1C[C@H](CNC(=O)c1cc(F)cc(Cl)c1)C2` [Example 104, 3-Chloro-5-fluoro-N-{(exo)-8-[(2-methoxy-1,1-dimethylethyl)carbamoyl]methyl-8-azabicyclo[3.2.1]octan-3-yl}methylbenzamide], 13 nM.
On the same count and under the same terms, under `CC(C)(C)CCC(=O)NC[C@@H]1C[C@H]2CC[C@@H](C1)N2CC(=O)NC(C)(C)C` [Example 71] stands 64 nM; under `Cc1cccc2[nH]c(C[C@@H]3C[C@H]4CC[C@@H](C3)N4CC(=O)NC(C)(C)C)nc12` [Example 120, N-tert-Butyl-2-[(exo)-3-(4-methyl-1H-benzimidazol-2-yl)methyl-8-azabicyclo[3.2.1]octan-8-yl]acetamide], 59 nM.
Still for that read-out and setting: under `COc1cc(Cl)cc(C(=O)NC[C@@H]2C[C@H]3CC[C@@H](C2)N3CC(=O)NC(C)(C)C)c1` [Example 53] stands 49 nM; under `COc1cccc(OC(C)(C)C(=O)NC[C@@H]2C[C@H]3CC[C@@H](C2)N3CC(=O)NC(C)(C)C)c1` [Example 32], 98 nM.
Turning to `COc1cc(C)cc(C(=O)NC[C@@H]2C[C@H]3CC[C@@H](C2)N3CC(=O)NC(C)(C)C)c1` [Example 72], the IC50 was found to be 55 nM.
For `CC(C)(C)NC(=O)CN1[C@@H]2CC[C@H]1C[C@H](CNC(=O)c1ccc3c(c1)CCCO3)C2` [Example 59], the IC50 is 61 nM.
Still for that read-out and setting: under `CC(C)(C)NC(=O)CN1[C@@H]2CC[C@H]1C[C@H](CNC(=O)c1cccc(Cl)c1)C2` [Example 52] stands 48 nM; under `CC(C)(C)NC(=O)CN1[C@@H]2CC[C@H]1C[C@@H](CC(=O)NC13CC4CC(CC(C4)C1)C3)C2` [Example 129, N-(Adamantan-1-yl)-2-[(endo)-8-(tert-butylcarbamoyl)methyl-8-azabicyclo[3.2.1]octan-3-yl]acetamide], 66 nM.

As usually defined, the IC50 is the concentration at which inhibition is half-maximal.
